Assays:
Thromboxane = target: T1, Thromboxane (Homo sapiens, UniProt P21731); assay: Thromboxane-antagonistic activity (displacement of 3H-labelled ligand on human platelets); assay type: binding; conditions: human platelet suspension, 60 minutes at ambient temperature
T1 construct: endogenous in cells; host or cells: human platelets (platelet-rich plasma passed through Sepharose 2B)
T1 sequence (P21731 1-343): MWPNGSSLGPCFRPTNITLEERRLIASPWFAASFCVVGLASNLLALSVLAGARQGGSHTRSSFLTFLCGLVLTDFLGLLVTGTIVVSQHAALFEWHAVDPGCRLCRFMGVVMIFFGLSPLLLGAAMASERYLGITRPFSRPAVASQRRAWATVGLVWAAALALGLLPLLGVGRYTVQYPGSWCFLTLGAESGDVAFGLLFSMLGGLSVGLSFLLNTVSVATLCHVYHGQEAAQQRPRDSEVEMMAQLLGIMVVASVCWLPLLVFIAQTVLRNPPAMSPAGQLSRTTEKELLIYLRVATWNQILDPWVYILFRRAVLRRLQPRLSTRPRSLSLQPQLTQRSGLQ
Description: Thromboxane-antagonistic Activity
Venous human blood is anti-coagulated with 13 mM Na3 citrate and centrifuged for 10 minutes at 170×g. The supernatant platelet-rich plasma is passed through a Sepharose 2B column in order to remove the plasma proteins. Aliquots of the platelet suspension obtained are incubated with the test substance, the ligand (^3 H-labelled) and a marker (^14 C-labelled) for 60 minutes at ambient temperature and then centrifuged for 20 seconds at 10,000×g. The supernatant is removed and the pellet is dissolved in NaOH. The ^3 H activity in the supernatant corresponds to the free ligand, ^14 C gives the concentration of the marker. ^3 H in the pellet corresponds to the bound ligand whilst ^14 C is used to correct for the ligand in the extracellular space. After the process has been repeated, the displacement curve is determined from the binding values for different concentrations of the test substance and the IC50 is determined.

thrombocyte aggregation = assay: Antithrombotic activity: collagen-induced aggregation in platelet-rich plasma (Born and Cross); assay type: cell-based; conditions: Homo sapiens, 10 min; platelet-rich plasma from healthy volunteers; incubated 10 minutes at 37° C.; 50% change in optical density; read-out: Inhibition of collagen-induced aggregation EC50
Description: The thrombocyte aggregation is measured using the method of Born and Cross (J. Physiol. 170, 397 (1964)) in platelet-rich plasma taken from healthy volunteers. To inhibit coagulation, the blood is mixed with 3.14% strength sodium citrate in a ratio by volume of 1:10.
Collagen-induced Aggregation
The pattern of decrease in the optical density of the platelet suspension is photometrically measured and recorded after the addition of the aggregation-triggering substance. The rate of aggregation is concluded from the angle of inclination of the density curve. The point on the curve where there is greatest light transmittance is used to calculate the "optical density".
The quantity of collagen used is as little as possible but sufficient to produce an irreversible reaction curve. Standard commercial collagen produced by Hormonchemie of Munich is used. Before the addition of the collagen the plasma is incubated for 10 minutes with the substance at 37° C.
From the measurements obtained an EC50 is determined by plotting a graph, and indicates a 50% change in the "optical density" in terms of the inhibition of aggregation.

thromboxane synthetase = target: T2, thromboxane synthetase (Homo sapiens, UniProt P24557); assay: Inhibitory effect on thromboxane synthetase (TXB2 formation in human platelet suspension); assay type: cell-based; conditions: 10 minutes at ambient temperature, then 14C-labelled arachidonic acid 10 minutes, read-out: Inhibition of thromboxane synthetase IC50
T2 construct: endogenous in cells; host or cells: human platelets (platelet-rich plasma passed through Sepharose 2B)
T2 sequence (P24557 1-533): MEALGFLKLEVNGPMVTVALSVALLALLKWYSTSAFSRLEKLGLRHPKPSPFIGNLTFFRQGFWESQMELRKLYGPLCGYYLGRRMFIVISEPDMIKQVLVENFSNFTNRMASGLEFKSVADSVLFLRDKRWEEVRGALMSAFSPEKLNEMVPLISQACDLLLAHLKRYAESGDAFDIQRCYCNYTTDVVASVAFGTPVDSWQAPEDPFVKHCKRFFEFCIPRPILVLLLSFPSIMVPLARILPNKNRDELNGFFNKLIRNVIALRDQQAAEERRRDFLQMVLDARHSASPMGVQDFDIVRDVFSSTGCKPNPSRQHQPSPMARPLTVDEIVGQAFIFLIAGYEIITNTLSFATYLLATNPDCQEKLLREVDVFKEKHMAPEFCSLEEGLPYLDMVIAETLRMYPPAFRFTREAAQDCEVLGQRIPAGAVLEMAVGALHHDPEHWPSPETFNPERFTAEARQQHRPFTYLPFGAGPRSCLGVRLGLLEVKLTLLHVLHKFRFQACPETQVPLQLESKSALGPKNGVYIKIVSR
Description: Determining the Inhibitory Effect on Thromboxane Synthetase
Venous human blood is anti-coagulated with 13 mM Na3 citrate and centrifuged for 10 minutes at 170×g. The supernatant platelet-rich plasma is passed through a Sepharose 2B column in order to remove the plasma proteins. Aliquots of the platelet suspension obtained are incubated with the test substance or with a solvent as control for 10 minutes at ambient temperature and after the addition of ^14 C-labelled arachidonic acid incubation is continued for a further 10 minutes. After this has been stopped with 50 μl of citric acid, extraction is carried out 3 times with 500 μl of ethyl acetate and the combined extracts are distilled off with nitrogen. The residue is taken up in ethyl acetate, placed on TLC film and separated with chloro-form:methanol:glacial acetic acid:water (90:8:1:0.8, v/v/v/v). The dried TLC films are placed on X-ray film for 3 days, the autoradiograms were developed and the active zones were marked on the film using the autoradiograms. After cutting out, the activity is measured in a scintillation counter and the inhibition of the formation of TXB2 is calculated. The IC50 is determined by linear interpolation.

Row | IC50 (Thromboxane) | IC50 (thromboxane synthetase) | Structure (SMILES) | EC50 (thrombocyte aggregation)
1 | 600 nM | 2700 nM | CC(C)CNC(=NS(N)(=O)=O)Nc1cccc(/C(=C\CCCC(=O)O)c2cccnc2)c1 [W, 5E-6-(3-(2-amidosulphonyl-3-(2-methylpropyl)guanidino)phenyl)-6-(3-pyridyl)hex-5-enoic acid] | 12000 nM
2 | 380 nM | 5 nM | CC(C)CNC(Nc1cccc(/C(=C\CCCC(=O)O)c2cccnc2)c1)=C(C#N)C(N)=O [X, 5E-6-(3-(2-carbamoyl-2-cyano-1-(2-methylpropylamino)-ethyleneamino)phenyl)-6-(3-pyridyl)hex-5-enoic acid] | 31000 nM
3 | 21 nM | 250 nM | N#CN=C(Nc1cccc(/C(=C\CCCn2cnnn2)c2cccnc2)c1)NC1CCCC1 [Y, 4E-1-(5-(3-(2-cyano-3-cyclopentyl-guanidino)phenyl)-5-(3-pyridyl)-pent-4-enyl)tetrazole] | 1200 nM

Reference: patent US5482948A, “Pyridyl derivatives and pharmaceutical compositions comprising these compounds” (Dr. Karl Thomae GmbH, priority 1991, dated 1996)
